Results: article PMC9951859, “Investigation of α,ω-Disubstituted Polyamine-Cholic Acid Conjugates Identifies Hyodeoxycholic and Chenodeoxycholic Scaffolds as Non-Toxic, Potent Antimicrobials” (Antibiotics, 2023)

Legend:
S. aureus = test: ATP release bioluminescence assay; format: cell-based, Staphylococcus aureus; settings: followed over 30 min after exposure, CTAB (1%) positive control
Description: Solutions of the test compound 7e were prepared in DMSO at various concentrations. A suspension of growing S. aureus to be studied in Muller-Hinton II broth was prepared and incubated at 37 °C. An aliquot (90 µL) of this suspension was added to 10 µL of test compound solution and vortexed for 10 s. Luciferin–luciferase reagent (Yelen, France; 50 µL) was immediately added to this mixture, and luminescent signal quantified with an Infinite M200 microplate reader (Tecan) over a 30 min period; ATP concentration was quantified using internal sample addition. A similar procedure was used for the CTAB positive control.

[1] = system: Staphylococcus aureus ATCC 43300 (MRSA); test: Antimicrobial MIC assay (CO-ADD) against S. aureus MRSA; format: cell-based; settings: Staphylococcus aureus, read-out: MIC S.a.
Description: (§1) Antimicrobial evaluation against S. aureus (MRSA) (ATCC 43300), E. coli (ATCC 25922), K. pneumoniae (ATCC 700603), A. baumannii (ATCC 19606), C. albicans (ATCC 90028), and C. neoformans (ATCC 208821) was undertaken at the Community for Open Antimicrobial Drug Discovery at The University of Queensland (Australia) according to their standard protocols as reported previously.

[2] = system: Candida albicans ATCC 90028; test: Antimicrobial MIC assay (CO-ADD) against C. albicans; format: cell-based; settings: Candida albicans, ATCC90028, read-out: MIC C.a., Candida albicans ATCC 90028; mean (n = 2)
Description: as §1

[3] = system: Klebsiella pneumoniae ATCC 700603; test: Antimicrobial MIC assay (CO-ADD) against K. pneumoniae; format: cell-based; settings: Klebsiella pneumoniae, ATCC700603, read-out: MIC K.p.
Description: as §1

E. coli ATCC 25922 = test: Antibiotic enhancement of erythromycin; format: cell-based, Escherichia coli; settings: erythromycin at 2 μg/mL
Description: (§2) Restoring enhancer concentrations were determined with an inoculum of 5 × 10^5 CFU in […] of MH broth containing two-fold serial dilutions of each derivative in the presence of either doxycycline or erythromycin at 2 μg/mL. […] These measurements were independently repeated in triplicate.

[4] = system: Cryptococcus neoformans ATCC 208821; test: Antimicrobial MIC assay (CO-ADD) against C. neoformans; format: cell-based; settings: Cryptococcus neoformans, ATCC208821, read-out: MIC C.n.
Description: as §1

[5] = Cytotoxicity assay on HEK293; format: cell-based, human; settings: human, HEK293 human embryonic kidney cells; concentration at 50% cytotoxicity on HEK293; mean (n = 2); top dose tested 32 μg/mL
Description: (§3) Cytotoxicity assays were conducted using the protocols previously reported.

[6] = system: Escherichia coli ATCC 25922; test: Antimicrobial MIC assay (CO-ADD) against E. coli; format: cell-based; settings: Escherichia coli, ATCC25922, read-out: MIC E.c.
Description: as §1

P. aeruginosa ATCC 27853 = test: Antibiotic enhancement of doxycycline; format: cell-based, Pseudomonas aeruginosa; settings: doxycycline at 2 μg/mL
Description: as §2

[7] = system: Acinetobacter baumannii ATCC 19606; test: Antimicrobial MIC assay (CO-ADD) against A. baumannii; format: cell-based; settings: Acinetobacter baumannii, ATCC19606, read-out: MIC A.b.
Description: as §1

[8] = system: Pseudomonas aeruginosa ATCC 27853; test: Antimicrobial MIC assay (CO-ADD) against P. aeruginosa; format: cell-based; settings: Pseudomonas aeruginosa, ATCC27853, read-out: MIC P.a.
human red blood cells = test: Hemolytic assay; format: cell-based; settings: concentration at 10% hemolytic activity on human red blood cells; mean (n = 2); top dose tested 32 μg/mL
Description: Hemolytic assays were conducted using the protocols previously reported.

[9] = system: HEK293 human embryonic kidney cells; test: Cytotoxicity assay on HEK293; format: cell-based; settings: concentration at 50% cytotoxicity on HEK293; mean (n = 2); top dose tested 32 μg/mL
Description: as §3

SMILES | ATP release (extracellular ATP, bioluminescence) (S. aureus) | MIC [1] | MIC [2] | MIC [3] | enhancement of antibiotic activity of erythromycin (E. coli ATCC 25922) | MIC [4] | IC50 [5] | MIC [6] | enhancement of antibiotic activity of doxycycline (P. aeruginosa ATCC 27853) | MIC [7] | MIC [8] | Hemolysis (HC10) (human red blood cells) | Cytotoxicity (IC50) [9]
CCCCCCCCCCCCCCCC[N+](C)(C)C [CTAB, cetyltrimethylammonium bromide, reference compound] | dramatically disrupted the S. aureus membrane after 2 min |  |  |  |  |  |  |  |  |  |  |  | 
C[C@H](CCC(=O)NCCCNCCCCCCCNCCCNC(=O)CC[C@@H](C)[C@H]1CC[C@H]2[C@@H]3C[C@H](O)[C@@H]4C[C@H](O)CC[C@]4(C)[C@H]3CC[C@]12C)[C@H]1CC[C@H]2[C@@H]3C[C@H](O)[C@@H]4C[C@H](O)CC[C@]4(C)[C@H]3CC[C@]12C.O=C(O)C(F)(F)F.O=C(O)C(F)(F)F [Compound 7c, N^1,N^7-Bis(3-((R)-4-((3R,5R,6S,8S,9S,10R,13R,14S,17R)-3,6-dihydroxy-10,13-dimethylhexadecahydro-1H-cyclopenta[a]phenanthren-17-yl)pentanamido)propyl)heptane-1,7-diaminium 2,2,2-trifluoroacetate] |  | ≤ 0.21 µM | 13 µM | > 26 µM | No enhancement was observed | ≤ 0.21 µM | > 26 µM | > 26 µM | No enhancement was observed | > 26 µM | > 26 µM | >26 µM | 
C[C@H](CCC(=O)NCCCNCCCCCCCCNCCCNC(=O)CC[C@@H](C)[C@H]1CC[C@H]2[C@@H]3C[C@H](O)[C@@H]4C[C@H](O)CC[C@]4(C)[C@H]3CC[C@]12C)[C@H]1CC[C@H]2[C@@H]3C[C@H](O)[C@@H]4C[C@H](O)CC[C@]4(C)[C@H]3CC[C@]12C.O=C(O)C(F)(F)F.O=C(O)C(F)(F)F [Compound 7d, N^1,N^8-Bis(3-((R)-4-((3R,5R,6S,8S,9S,10R,13R,14S,17R)-3,6-dihydroxy-10,13-dimethylhexadecahydro-1H-cyclopenta[a]phenanthren-17-yl)pentanamido)propyl)octane-1,8-diaminium 2,2,2-trifluoroacetate] |  | ≤ 0.2 µM | 13 µM | > 26 µM | No enhancement was observed | ≤ 0.2 µM | > 26 µM | > 26 µM | No enhancement was observed | > 26 µM | > 26 µM | >26 µM | 
C[C@H](CCC(=O)NCCCNCCCCCCCCCCCCNCCCNC(=O)CC[C@@H](C)[C@H]1CC[C@H]2[C@@H]3[C@@H](O)C[C@@H]4C[C@H](O)CC[C@]4(C)[C@H]3CC[C@]12C)[C@H]1CC[C@H]2[C@@H]3[C@@H](O)C[C@@H]4C[C@H](O)CC[C@]4(C)[C@H]3CC[C@]12C.O=C(O)C(F)(F)F.O=C(O)C(F)(F)F [Compound 8f, N^1,N^12-Bis(3-((R)-4-((3R,5S,7S,8R,9S,10S,13R,14S,17R)-3,7-dihydroxy-10,13-dimethylhexadecahydro-1H-cyclopenta[a]phenanthren-17-yl)pentanamido)propyl)dodecane-1,12-diaminium 2,2,2-trifluoroacetate] |  | ≤ 0.19 µM | 3.1 µM | > 25 µM |  | ≤ 0.19 µM | 8.4 µM | > 25 µM |  | > 25 µM | > 25 µM | 1.4 µM | exhibiting cytotoxic properties
C[C@H](CCC(=O)NCCCNCCCCNCCCNC(=O)CC[C@@H](C)[C@H]1CC[C@H]2[C@@H]3[C@H](O)C[C@@H]4C[C@H](O)CC[C@]4(C)[C@H]3CC[C@]12C)[C@H]1CC[C@H]2[C@@H]3[C@H](O)C[C@@H]4C[C@H](O)CC[C@]4(C)[C@H]3CC[C@]12C.O=C(O)C(F)(F)F.O=C(O)C(F)(F)F [Compound 9a, N^1,N^4-Bis(3-((R)-4-((3R,5S,7R,8R,9S,10S,13R,14S,17R)-3,7-dihydroxy-10,13-dimethylhexadecahydro-1H-cyclopenta[a]phenanthren-17-yl)pentanamido)propyl)butane-1,4-diaminium 2,2,2-trifluoroacetate] |  | ≤ 0.21 µM | ≤ 0.21 µM | > 27 µM |  | ≤ 0.21 µM | 27 µM | 6.8 µM |  | 27 µM | > 27 µM |  | devoid of cytotoxicity
